The supplement of paper PMC5908809

Legend:
[1] = tested on: normal NK cells expanded with K562-aAPC; assay: percent inhibition of viability; higher = more inhibition; details: 72 h, IL-2 2.5 ng/mL
Description: (§1)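 Drug sensitivity and resistance testing on K562-aAPC-expanded normal NK cells: 5 concentrations (10-fold steps over a 10,000-fold range), 72 h at 37 °C, viability by CellTiter-Glo normalised to DMSO and benzethonium chloride controls; DSS from the fitted curve.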

DERL-7 (IL-2 2.5 ng/mL) [2] = assay: as above; details: 72 h
IMC-1 (IL-2 20 ng/mL) [3] = assay: as above; details: 72 h
KAI3 (IL-2 2.5 ng/mL) [4] = assay: as above; details: 72 h
KHYG-1 (IL-2 2.5 ng/mL) [5] = assay: as above; details: 72 h
NK-92 (IL-2 2.5 ng/mL) [6] = assay: as above; details: 72 h
NK-YS (IL-2 2.5 ng/mL) [7] = assay: as above; details: 72 h
NKL (IL-2 2.5 ng/mL) [8] = assay: as above; details: 72 h
SNK-6 (IL-2 2.5 ng/mL) [9] = assay: as above; details: 72 h
YT (IL-2 2.5 ng/mL) [10] = assay: as above; details: 72 h
[11] = tested on: normal primary NK cells, pool 1 (3 donors) (IL-2 2.5 ng/mL); assay: as above; details: 72 h
[12] = tested on: normal primary NK cells, pool 1 (3 donors), resting (IL-2 0 ng/mL); assay: as above; details: 72 h
[13] = tested on: normal primary NK cells, pool 2 (3 donors) (IL-2 2.5 ng/mL); assay: as above; details: 72 h
[14] = tested on: normal primary NK cells, pool 3 (3 donors) (IL-2 2.5 ng/mL); assay: as above; details: 72 h
[15] = tested on: normal NK cells expanded with K562-aAPC; assay: drug sensitivity score (DSS) (DSS units); higher = more sensitive; extreme values may be limits of the assay; details: 72 h; IL-2 2.5 ng/mL
Description: as §1

DERL-7 (IL-2 2.5 ng/mL) [16] = assay: as above; details: 72 h
IMC-1 (IL-2 20 ng/mL) [17] = assay: as above; details: 72 h
KAI3 (IL-2 2.5 ng/mL) [18] = assay: as above; details: 72 h
KHYG-1 (IL-2 2.5 ng/mL) [19] = assay: as above; details: 72 h
NK-92 (IL-2 2.5 ng/mL) [20] = assay: as above; details: 72 h
NK-YS (IL-2 2.5 ng/mL) [21] = assay: as above; details: 72 h
NKL (IL-2 2.5 ng/mL) [22] = assay: as above; details: 72 h
SNK-6 (IL-2 2.5 ng/mL) [23] = assay: as above; details: 72 h
YT (IL-2 2.5 ng/mL) [24] = assay: as above; details: 72 h
[25] = tested on: normal primary NK cells, pool 1 (3 donors) (IL-2 2.5 ng/mL); assay: as above; details: 72 h
[26] = tested on: normal primary NK cells, pool 1 (3 donors), resting (IL-2 0 ng/mL); assay: as above; details: 72 h
[27] = tested on: normal primary NK cells, pool 2 (3 donors) (IL-2 2.5 ng/mL); assay: as above; details: 72 h
[28] = tested on: normal primary NK cells, pool 3 (3 donors) (IL-2 2.5 ng/mL); assay: as above; details: 72 h

CC(=O)Nc1ccc(C(=O)Nc2ccccc2N)cc1 [Tacedinaline] (max concentration tested 1000 nM)
percent inhibition of viability [%]
Details	0.1 nM	1 nM	10 nM	100 nM	1000 nM
DERL-7 (IL-2 2.5 ng/mL) [2]	-0.72	2.51	4.2	-1.26	-25
IMC-1 (IL-2 20 ng/mL) [3]	-3.66	-4.64	-1.29	1.46	17.6
KAI3 (IL-2 2.5 ng/mL) [4]	-0.2	1.1	-0.46	-0.59	35.3
KHYG-1 (IL-2 2.5 ng/mL) [5]	-0.97	-4.06	-3.24	4.27	16.5
NK-92 (IL-2 2.5 ng/mL) [6]	-18.8	2.67	-7.86	1.73	27.5
NK-YS (IL-2 2.5 ng/mL) [7]	-0.71	-3.09	-0.76	2.62	20.6
NKL (IL-2 2.5 ng/mL) [8]	-13.2	-9.56	-8.35	10.4	13.4
SNK-6 (IL-2 2.5 ng/mL) [9]	1.48	-10.9	-5.83	1.17	46.3
YT (IL-2 2.5 ng/mL) [10]	-4.71	-3.94	-0.65	4.76	25.3
[1]	-1.06	-4	-3.33	3.27	14
[11]	-1.61	16.8	8.47	8.43	13
[12]	-5.67	17.3	11.8	17	7.91
[13]	-2.79	13	9.29	6.96	7.45
[14]	-4.4	14.9	12.8	-1.16	-0.28

Details	drug sensitivity score
DERL-7 (IL-2 2.5 ng/mL) [16]	0
IMC-1 (IL-2 20 ng/mL) [17]	0.58
KAI3 (IL-2 2.5 ng/mL) [18]	1.62
KHYG-1 (IL-2 2.5 ng/mL) [19]	0.78
NK-92 (IL-2 2.5 ng/mL) [20]	1.36
NK-YS (IL-2 2.5 ng/mL) [21]	1
NKL (IL-2 2.5 ng/mL) [22]	0.67
SNK-6 (IL-2 2.5 ng/mL) [23]	2.54
YT (IL-2 2.5 ng/mL) [24]	1.69
[15]	0.42
[25]	0.6
[26]	5.06
[27]	0
[28]	0
